Data set [1] in a line: Solubility in Japanese Pharmacopeia First Fluid (JP1) and Second Fluid (JP2). It is filed as physicochemical. The following applies: thermodynamic from solid, room temperature. As to the method: Method of Testing Solubility in Water and Neutral Buffer A 10 mmol/L solution of the test compound was prepared in DMSO and dispensed 100 μL of 10 mmol/L DMSO stock solutions into labeled glass tubes in duplicate, one for Japanese Pharmacopeia First Fluid (JP1) and second for Japanese Pharmacopeia Second Fluid (JP2). After evaporation of DMSO from each tube, 500 μL of JP1 and JP2 fluid were added in each tube, respectively. These tubes were sonicated for 1 minute and placed on shaker for 30 minutes with an interval of 30 seconds at every 5 minute. Tubes were placed in dark at room temperature for 1 hour and solution was filtered through membrane filter. The filtrate was diluted 2-fold and 10-fold. The resulting test solutions was analyzed and quantified against the standards using UPLC (standard preparation-10 mmol/L solution in DMSO is serially diluted with 50% aqueous acetonitrile solution to prepare 2 solutions; 100 μmol/L standard solution and 5 μmol/L standard solutions).

Data set [2] can be described thus: Solubility of parent compounds and prodrugs in phosphate buffer. The class given is physicochemical. The following applies: aqueous buffer, thermodynamic from solid, 25° C., more than 4 weeks, pH 7.0. As to the method: Parent compounds: About 5 mg of parent compounds (biologically active forms of prodrugs) were added to 950 μL of phosphate buffer, and mixed vigorously for 1 hour at 25° C. Then, these samples were stored at 25° C. for more than 4 weeks and filtered to remove undissolved parent compounds. Next, these solutions were diluted with 50% aqueous acetonitrile solution. The resulting test solutions were assayed by HPLC. Prodrugs: About 30 mg of prodrugs were added to 120 μL of phosphate buffer, and mixed vigorously for 1 hour at 25° C. After shaking, pH of these solutions were adjusted at pH 7.0 by 1 mol/L NaOH solution. Then, the total volume were adjusted to 280 μL with purified water. Next, these solutions were stored at 25° C. for more than 4 weeks and filtered to remove undissolved compounds. These solutions were diluted with 50% aqueous acetonitrile solution. The resulting test solutions were assayed by HPLC.

Data set [3] concerns Clostridium difficile 2009155, a NAP1/027 strain. The experiment in a line: Hamster CDI model. It is filed as in vivo. The following applies: 0.3 mg/kg/day for 5 days. As to the method:
d) Method for Testing Therapeutic Effect of Compounds in Hamster CDI Model
The in vivo efficacy of Compound No. 1 was evaluated in a hamster CDI model caused by Clostridium difficile 2009155, a NAP1/027 strain. The Syrian hamsters (7-9 weeks old, National Centre for Laboratory Animal Sciences, National Institute Nutrition, Hyderabad, India.) were acclimatized at least 7 days prior the experiment. Hamsters primed with a single subcutaneous injection of clindamycin (30 mg/kg) 1 day prior to infection. Hamsters were infected by oral gavage with 1 mL of spore suspension (2-3×10^5) prepared in PBS. The test compounds were prepared using the 0.25 w/v % Methyl Cellulose Solution for oral administration and 10% HP ß-CD for SC administration and treatment was started 6 h post infection at an interval of 24 h for 5 days. Hamsters were administered a dose of 0.03-0.3 mg/kg/day for 5 days. The death and survival time of the hamsters treated with test compound administered group and non-treated group (vehicle-control) were recorded once daily for 35 days and were compared. A change in the survival time was used as an index of therapeutic effect.

[4] abbreviates: pH 1.2, simulated gastric fluid, Japanese Pharmacopeia First Fluid (JP1), read-out: Solubility JP1.
The mark [5] stands for this setting: pH 6.8, aqueous buffer, Japanese Pharmacopeia Second Fluid (JP2), read-out: Solubility JP2.
The mark [6] stands for this setting: prodrug, phosphate buffer adjusted with NaOH.
The mark [7] stands for this setting: parent compound, phosphate buffer.

Values after ≈ are worked out from the molar mass of the structure shown. Where two headings read alike, the source gives them in different places.

This is an account of results in US10752647B2, “N-phosphonoxymethyl prodrugs of hydroxyalkyl thiadiazole derivatives” (DAIICHI SANKYO COMPANY, LIMITED, priority 2017, dated 2020).

For orientation: solubility means how much of the substance goes into solution per volume. Regarding `CCc1c(Cl)nc(C(=O)N[C@@H]2CCN(c3nnc([C@](C)(O)CO)s3)C[C@@H]2OC)n1COP(=O)(O)O` [Compound No. 3, (4-Chloro-2-{[(3S,4R)-1-{5-[(2R)-1,2-dihydroxypropan-2-yl]-1,3,4-thiadiazol-2-yl}-3-methoxypiperidin-4-yl]carbamoyl}-5-ethyl-1H-imidazol-1-yl)methyl dihydrogen phosphate], the values for the solubility at 30 min in data set [1] (setting [4]) and in data set [1] (setting [5]) were > 1.35 mg/mL and > 1.32 mg/mL, respectively. In addition, in data set [2] (setting [6]), the solubility was 107 mg/mL.

As for `CCc1nc(C(=O)N[C@@H]2CCN(c3nnc([C@H](C)O)s3)C[C@@H]2OC)n(COP(=O)(O)O)c1Cl` [Compound No. 6, (5-Chloro-4-ethyl-2-{[(3S,4R)-1-{5-[(1S)-1-hydroxyethyl]-1,3,4-thiadiazol-2-yl}-3-methoxypiperidin-4-yl]carbamoyl}-1H-imidazol-1-yl)methyl dihydrogen phosphate], the solubility in data set [2] (setting [6]) amounted to 104 mg/mL.

Take `CCc1[nH]c(C(=O)N[C@@H]2CCN(c3nnc([C@](C)(O)CO)s3)C[C@@H]2OC)nc1Cl` [Compound A, 4-chloro-N-[(3S,4R)-1-{5-[(2R)-1,2-dihydroxypropan-2-yl]-1,3,4-thiadiazol-2-yl}-3-methoxypiperidin-4-yl]-5-ethyl-1H-imidazole-2-carboxamide]: in data set [2] (setting [7]), the solubility is 0.775 mg/mL (≈ 1740 µM).

As for `CCc1c(Cl)nc(C(=O)N[C@@H]2CCN(c3nnc([C@H](C)O)s3)C[C@@H]2OC)n1COP(=O)(O)O` [Compound No. 5, (4-Chloro-5-ethyl-2-{[(3S,4R)-1-{5-[(1S)-1-hydroxyethyl]-1,3,4-thiadiazol-2-yl}-3-methoxypiperidin-4-yl]carbamoyl}-1H-imidazol-1-yl)methyl dihydrogen phosphate], the solubility in data set [2] (setting [6]) worked out at 101 mg/mL.

Turning to `CCc1nc(C(=O)N[C@@H]2CCN(c3nnc([C@H](O)CO)s3)C[C@@H]2OC)n(COP(=O)(O)O)c1Cl` [Compound No. 8, (5-Chloro-2-{[(3S,4R)-1-{5-[(1R)-1,2-dihydroxyethyl]-1,3,4-thiadiazol-2-yl}-3-methoxypiperidin-4-yl]carbamoyl}-4-ethyl-1H-imidazol-1-yl)methyl dihydrogen phosphate], in data set [2] (setting [6]), the solubility worked out at 102 mg/mL.

For the molecule `CCc1c(Cl)nc(C(=O)N[C@@H]2CCN(c3nnc([C@H](O)CO)s3)C[C@@H]2OC)n1COP(=O)(O)O` [Compound No. 7, (4-Chloro-2-{[(3S,4R)-1-{5-[(1R)-1,2-dihydroxyethyl]-1,3,4-thiadiazol-2-yl}-3-methoxypiperidin-4-yl]carbamoyl}-5-ethyl-1H-imidazol-1-yl)methyl dihydrogen phosphate], in data set [2] (setting [6]), the solubility came out at 107 mg/mL.

For `CCc1nc(C(=O)N[C@@H]2CCN(c3nnc(C(C)(C)O)s3)C[C@@H]2OC)n(COP(=O)(O)O)c1Cl` [Compound No. 2, [5-Chloro-4-ethyl-2-({(3S,4R)-1-[5-(2-hydroxypropan-2-yl)-1,3,4-thiadiazol-2-yl]-3-methoxypiperidin-4-yl}carbamoyl)-1H-imidazol-1-yl]methyl dihydrogen phosphate], the results for the solubility at 30 min in data set [1] (setting [4]) and in data set [1] (setting [5]) were > 1.12 mg/mL and > 1.09 mg/mL, respectively. In data set [3], the “Survival on day 35” value is recorded as 100%.

With `CCc1nc(C(=O)N[C@@H]2CCN(c3nnc([C@@H](O)CO)s3)C[C@@H]2OC)n(COP(=O)(O)O)c1Cl` [Compound No. 10, (5-Chloro-2-{[(3S,4R)-1-{5-[(1S)-1,2-dihydroxyethyl]-1,3,4-thiadiazol-2-yl}-3-methoxypiperidin-4-yl]carbamoyl}-4-ethyl-1H-imidazol-1-yl)methyl dihydrogen phosphate], the solubility in data set [2] (setting [6]) is 105 mg/mL.

Turning to `CCc1[nH]c(C(=O)N[C@@H]2CCN(c3nnc([C@@H](O)CO)s3)C[C@@H]2OC)nc1Cl` [Compound B, 4-chloro-N-[(3S,4R)-1-{5-[(1S)-1,2-dihydroxyethyl]-1,3,4-thiadiazol-2-yl}-3-methoxypiperidin-4-yl]-5-ethyl-1H-imidazole-2-carboxamide], in data set [2] (setting [7]), the solubility worked out at 0.38 mg/mL (≈ 882 µM).

Take `CCc1nc(C(=O)N[C@@H]2CCN(c3nnc([C@](C)(O)CO)s3)C[C@@H]2OC)n(COP(=O)(O)O)c1Cl` [Compound No. 4, (5-Chloro-2-{[(3S,4R)-1-{5-[(2R)-1,2-dihydroxypropan-2-yl]-1,3,4-thiadiazol-2-yl}-3-methoxypiperidin-4-yl]carbamoyl}-4-ethyl-1H-imidazol-1-yl)methyl dihydrogen phosphate]: the results for the solubility at 30 min in data set [1] (setting [4]) and in data set [1] (setting [5]) were > 1.28 mg/mL and > 1.51 mg/mL, respectively. Also, in data set [2] (setting [6]), the solubility was found to be 102 mg/mL.
